Results: patent publication US11109593B2, “Isoxazolin-5-one derivative and herbicide containing same as active ingredient” (HOKKO CHEMICAL INDUSTRY CO., LTD., priority 2017, dated 2021)

How the values were obtained:
Type in all cases: in vivo
Amaranthus viridis [1] = experiment: Test Example 3: herbicidal effect test by treatment of dry field farming soil (one day after seeding); details: 120 g/10a active ingredient, evaluated 14 days after treatment
How it was run: (§1)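 Herbicidal rate (%) = {1 − treated/untreated mean plant dry weight} × 100, scored 14 days after spraying, duplicate pots per concentration. Emulsified compound was water-diluted and applied to soil surface one day post-seeding at 120 g a.i. per 10 ares.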

southern crabgrass [2] = experiment: as above; details: 120 g/10a active ingredient, evaluated 14 days after treatment
How it was run: as §1

Chenopodium album [3] = experiment: as above; details: 120 g/10a active ingredient, evaluated 14 days after treatment
How it was run: as §1

Echinochloa crus-galli [4] = experiment: as above; details: 120 g/10a active ingredient, evaluated 14 days after treatment
How it was run: as §1

[5] = system: broad leaf weeds (Lindernia pyxidaria and Monochoria vaginalis); experiment: Test Example 1: herbicidal effect test by treatment of rice paddy soil (immediately after seeding); details: 120 g/10a active ingredient, dry weight vs untreated area, 14 days after treatment; for pest or weed control at 1200 g/ha: 336 h
How it was run: (§2)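 Applied at 120 g a.i./10 ares as diluted emulsion dropped into flooded (~3 cm) paddy soil pots right after sowing seeds 0–1 cm deep; greenhouse, two replicates. At day 14, dry weight of treated versus untreated plants gives % herbicidal rate.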

Echinochloa crus-galli [6] = experiment: as above; details: 120 g/10a active ingredient, dry weight vs untreated area, 14 days after treatment
How it was run: as §2

Scirpus juncoides [7] = experiment: as above; details: 120 g/10a active ingredient, dry weight vs untreated area, 14 days after treatment
How it was run: as §2

[8] = system: broad leaf weeds (Lindernia pyxidaria and Monochoria vaginalis); experiment: Test Example 2: herbicidal effect test by treatment during growing period in paddy rice cultivation (seven days after seeding); details: 120 g/10a active ingredient, assessed 14 days after treatment, dry weight vs untreated area; for pest or weed control at 1200 g/ha: 336 h
How it was run: (§3)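 Emulsion formulations, diluted in water, applied dropwise to flooded pots (about 3 cm water) 7 days post-seeding at 120 g a.i./10 ares. Weeds sown 30 seeds each, 0–1 cm deep in puddled paddy soil; greenhouse. Readout: % reduction in plant dry weight vs untreated, day 14, duplicates.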

Echinochloa crus-galli [9] = experiment: as above; details: 120 g/10a active ingredient, assessed 14 days after treatment, dry weight vs untreated area
How it was run: as §3

Scirpus juncoides [10] = experiment: as above; details: 120 g/10a active ingredient, assessed 14 days after treatment, dry weight vs untreated area
How it was run: as §3

Amaranthus viridis [11] = experiment: Test Example 4: herbicidal effect test by treatment of leave and stem in dry field farming (seven days after seeding); details: 120 g/10a active ingredient, emulsion sprayed seven days after seeding, evaluated 14 days after treatment
How it was run: (§4)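 Weeds were seeded at 20 seeds per species into the top 1 cm of alluvial upland soil in pots, then sprayed 7 days after seeding with water-diluted emulsifiable concentrate at 100 L/10 a, giving 120 g active ingredient/10 a. Duplicate pots; herbicidal rate (%) was 14 days post-treatment, from dry weight versus untreated.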

southern crabgrass [12] = experiment: as above; details: 120 g/10a active ingredient, emulsion sprayed seven days after seeding, evaluated 14 days after treatment
How it was run: as §4

Chenopodium album [13] = experiment: as above; details: 120 g/10a active ingredient, emulsion sprayed seven days after seeding, evaluated 14 days after treatment
How it was run: as §4

Echinochloa crus-galli [14] = experiment: as above; details: 120 g/10a active ingredient, emulsion sprayed seven days after seeding, evaluated 14 days after treatment
How it was run: as §4

SMILES	herbicidal rate, Amaranthus viridis (Amaranthus viridis [1]) [%]	herbicidal rate, southern crabgrass (southern crabgrass [2]) [%]	herbicidal rate, Chenopodium album (Chenopodium album [3]) [%]	herbicidal rate, Echinochloa crus-galli (Echinochloa crus-galli [4]) [%]	Herbicidal rate (%) Lindernia pyxidaria ([5]; Lindernia pyxidaria) [%]	Herbicidal rate (%) Monochoria vaginalis ([5]; Monochoria vaginalis) [%]	Herbicidal rate (%) Echinochloa crus-galli (Echinochloa crus-galli [6]) [%]	Herbicidal rate (%) Scirpus juncoides (Scirpus juncoides [7]) [%]	Herbicidal rate (%) Lindernia pyxidaria ([8]; Lindernia pyxidaria) [%]	Herbicidal rate (%) Monochoria vaginalis ([8]; Monochoria vaginalis) [%]	Herbicidal rate (%) Echinochloa crus-galli (Echinochloa crus-galli [9]) [%]	Herbicidal rate (%) Scirpus juncoides (Scirpus juncoides [10]) [%]	herbicidal effect (herbicidal rate), Amaranthus viridis (Amaranthus viridis [11]) [%]	herbicidal effect (herbicidal rate), southern crabgrass (southern crabgrass [12]) [%]	herbicidal effect (herbicidal rate), Chenopodium album (Chenopodium album [13]) [%]	herbicidal effect (herbicidal rate), Echinochloa crus-galli (Echinochloa crus-galli [14]) [%]	other results
CCC(C)n1oc(=O)c(Cc2ccccc2N(S(=O)(=O)C(F)(F)F)S(=O)(=O)C(F)(F)F)c1C (centres unmarked) [Compound 1-964, 1,1,1-trifluoro-N-[2-[(3-methyl-5-oxo-2-sec-butyl-isoxazol-4-yl)methyl]phenyl]-N-(trifluoromethylsulfonyl)methanesulfonamide]																	pest or weed control at 1200 g/ha (Amaranthus viridis [1]; Amaranthus viridis, 336 h, read-out: herbicidal rate, Amaranthus viridis): 90%; pest or weed control at 1200 g/ha (southern crabgrass [2]; Digitaria ciliaris, 336 h, read-out: herbicidal rate, southern crabgrass): 90%; pest or weed control at 1200 g/ha (Chenopodium album [3]; Chenopodium album, 336 h, read-out: herbicidal rate, Chenopodium album): 90%; pest or weed control at 1200 g/ha (Echinochloa crus-galli [4]; Echinochloa crus-galli, 336 h, read-out: herbicidal rate, Echinochloa crus-galli): 90%; pest or weed control at 1200 g/ha ([5]; Monochoria vaginalis, read-out: Herbicidal rate (%) Monochoria vaginalis): 100%; pest or weed control at 1200 g/ha ([5]; in Lindernia, Lindernia pyxidaria, read-out: Herbicidal rate (%) Lindernia pyxidaria): 100%; pest or weed control at 1200 g/ha (Echinochloa crus-galli [6]; in Echinochloa crus-galli, 336 h, read-out: Herbicidal rate (%) Echinochloa crus-galli): 90%; pest or weed control at 1200 g/ha (Scirpus juncoides [7]; in Schoenoplectiella juncoides, 336 h, read-out: Herbicidal rate (%) Scirpus juncoides): 90%; pest or weed control at 1200 g/ha ([8]; Lindernia pyxidaria, read-out: herbicidal rate (%) Lindernia pyxidaria): 90%; pest or weed control at 1200 g/ha ([8]; Monochoria vaginalis, read-out: herbicidal rate (%) Monochoria vaginalis): 90%; pest or weed control at 1200 g/ha (Echinochloa crus-galli [9]; Echinochloa crus-galli, 336 h, read-out: herbicidal rate (%) Echinochloa crus-galli): 90%; pest or weed control at 1200 g/ha (Scirpus juncoides [10]; Schoenoplectiella juncoides, 336 h, read-out: herbicidal rate (%) Scirpus juncoides): 90%; pest or weed control at 1200 g/ha (Amaranthus viridis [11]; Amaranthus viridis, 336 h, read-out: herbicidal effect (herbicidal rate), Amaranthus viridis): 40%; pest or weed control at 1200 g/ha (southern crabgrass [12]; Digitaria ciliaris, 336 h, read-out: herbicidal effect (herbicidal rate), southern crabgrass): 60%; pest or weed control at 1200 g/ha (Chenopodium album [13]; Chenopodium album, 336 h, read-out: herbicidal effect (herbicidal rate), Chenopodium album): 0%; pest or weed control at 1200 g/ha (Echinochloa crus-galli [14]; Echinochloa crus-galli, 336 h, read-out: herbicidal effect (herbicidal rate), Echinochloa crus-galli): 90%
Cc1c(Cc2ccccc2NS(=O)(=O)C(F)(F)F)c(=O)on1C1CCCCC1 [Compound 1-142]	70	90	90	100	100	90	100	90	90	100	100	90	60	80	40	90	
COC(=O)N(c1ccccc1Cc1c(C)n(C(C)C)oc1=O)S(=O)(=O)C(F)(F)F [Compound 1-575]	40	90	40	90	100	100	90	100	100	100	90	100	30	90	90	90	
CCOC(=O)N(c1ccccc1Cc1c(C)n(C(C)COC)oc1=O)S(=O)(=O)C(F)(F)F (centres unmarked) [Compound 1-615]	90	90	90	90	90	90	90	90	90	90	90	90	40	90	40	90	
CC(=O)N(c1ccccc1Cc1c(C)n(C(C)c2ccccc2)oc1=O)S(=O)(=O)C(F)(F)F (centres unmarked) [Compound 1-310]	90	90	90	90	90	90	90	90	90	90	90	90	40	90	40	90	
COCC(C)n1oc(=O)c(Cc2ccccc2N(C(=O)OC(C)C)S(=O)(=O)C(F)(F)F)c1C (centres unmarked) [Compound 1-647]	90	90	90	90	90	90	90	90	90	90	90	90	40	90	40	90	
Cc1c(Cc2ccccc2N(C(=O)OCC(C)C)S(=O)(=O)C(F)(F)F)c(=O)on1C(C)(C)C [Compound 1-668]	90	90	90	90	90	90	90	90	90	90	90	90	40	90	40	90	
Cc1c(Cc2ccccc2N(C(=O)OCC(C)C)S(=O)(=O)C(F)(F)F)c(=O)on1C(C)c1ccccc1 (centres unmarked) [Compound 1-678]	90	90	90	90	90	90	90	90	90	90	90	90	40	90	40	90	
